Data as given in ChEMBL document CHEMBL4265889, “Design and synthesis of tetrahydropyridopyrimidine based Toll-Like Receptor (TLR) 7/8 dual agonists” (Bioorg Med Chem Lett, 2018).

Experiments:
Assay type in all cases: cell-based
[1] = target: T1, Toll-like receptor 7 (Homo sapiens) (UniProt Q9NYK1); test: Agonist activity at human TLR7 expressed in HEK293 cells after 6 hrs by NFkappaB-luciferase reporter gene assay
T1 sequence (whole entry): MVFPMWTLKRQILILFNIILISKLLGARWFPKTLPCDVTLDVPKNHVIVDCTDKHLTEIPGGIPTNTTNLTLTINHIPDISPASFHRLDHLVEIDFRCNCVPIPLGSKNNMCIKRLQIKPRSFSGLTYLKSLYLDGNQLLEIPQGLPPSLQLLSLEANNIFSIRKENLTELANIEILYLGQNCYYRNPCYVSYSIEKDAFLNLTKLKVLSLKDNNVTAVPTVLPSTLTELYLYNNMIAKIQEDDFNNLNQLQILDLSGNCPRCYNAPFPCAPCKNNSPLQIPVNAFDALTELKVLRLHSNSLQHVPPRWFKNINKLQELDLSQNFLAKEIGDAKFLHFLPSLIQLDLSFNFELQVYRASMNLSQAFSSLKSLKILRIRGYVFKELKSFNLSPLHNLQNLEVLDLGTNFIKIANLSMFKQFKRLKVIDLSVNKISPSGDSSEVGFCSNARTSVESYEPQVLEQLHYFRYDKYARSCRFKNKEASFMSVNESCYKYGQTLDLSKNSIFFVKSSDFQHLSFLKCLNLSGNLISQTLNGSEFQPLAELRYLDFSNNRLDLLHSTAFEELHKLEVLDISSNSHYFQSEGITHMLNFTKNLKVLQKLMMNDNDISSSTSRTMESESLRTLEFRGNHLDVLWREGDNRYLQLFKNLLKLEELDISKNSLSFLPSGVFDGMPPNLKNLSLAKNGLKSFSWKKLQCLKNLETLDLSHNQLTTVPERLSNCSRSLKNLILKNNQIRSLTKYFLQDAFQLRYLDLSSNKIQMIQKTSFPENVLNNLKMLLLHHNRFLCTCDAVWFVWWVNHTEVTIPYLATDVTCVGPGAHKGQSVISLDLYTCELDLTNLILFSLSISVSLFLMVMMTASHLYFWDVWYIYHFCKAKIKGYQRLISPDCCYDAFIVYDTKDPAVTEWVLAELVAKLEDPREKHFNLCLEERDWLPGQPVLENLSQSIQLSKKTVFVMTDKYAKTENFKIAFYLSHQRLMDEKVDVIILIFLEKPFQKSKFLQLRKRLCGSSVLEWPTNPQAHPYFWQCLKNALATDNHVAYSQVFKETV

[2] = target: T1, Toll-like receptor 7 (Homo sapiens); test: Agonist activity at TLR7 in human PBMC assessed as suppression of HCV replicon replication in human HuH7 luc/neo cells harboring RNA encoding bicistronic expression construct comprising wild type HCV type 1b NS3-NS5B regions exposed to conditioned media from compound treated PBMCs after 24 hrs by luciferase reporter gene assay
[3] = target: T2, Toll-like receptor 8 (Homo sapiens) (UniProt Q9NR97); test: Agonist activity at human TLR8 expressed in HEK293 cells after 6 hrs by NFkappaB-luciferase reporter gene assay
T2 sequence (whole entry): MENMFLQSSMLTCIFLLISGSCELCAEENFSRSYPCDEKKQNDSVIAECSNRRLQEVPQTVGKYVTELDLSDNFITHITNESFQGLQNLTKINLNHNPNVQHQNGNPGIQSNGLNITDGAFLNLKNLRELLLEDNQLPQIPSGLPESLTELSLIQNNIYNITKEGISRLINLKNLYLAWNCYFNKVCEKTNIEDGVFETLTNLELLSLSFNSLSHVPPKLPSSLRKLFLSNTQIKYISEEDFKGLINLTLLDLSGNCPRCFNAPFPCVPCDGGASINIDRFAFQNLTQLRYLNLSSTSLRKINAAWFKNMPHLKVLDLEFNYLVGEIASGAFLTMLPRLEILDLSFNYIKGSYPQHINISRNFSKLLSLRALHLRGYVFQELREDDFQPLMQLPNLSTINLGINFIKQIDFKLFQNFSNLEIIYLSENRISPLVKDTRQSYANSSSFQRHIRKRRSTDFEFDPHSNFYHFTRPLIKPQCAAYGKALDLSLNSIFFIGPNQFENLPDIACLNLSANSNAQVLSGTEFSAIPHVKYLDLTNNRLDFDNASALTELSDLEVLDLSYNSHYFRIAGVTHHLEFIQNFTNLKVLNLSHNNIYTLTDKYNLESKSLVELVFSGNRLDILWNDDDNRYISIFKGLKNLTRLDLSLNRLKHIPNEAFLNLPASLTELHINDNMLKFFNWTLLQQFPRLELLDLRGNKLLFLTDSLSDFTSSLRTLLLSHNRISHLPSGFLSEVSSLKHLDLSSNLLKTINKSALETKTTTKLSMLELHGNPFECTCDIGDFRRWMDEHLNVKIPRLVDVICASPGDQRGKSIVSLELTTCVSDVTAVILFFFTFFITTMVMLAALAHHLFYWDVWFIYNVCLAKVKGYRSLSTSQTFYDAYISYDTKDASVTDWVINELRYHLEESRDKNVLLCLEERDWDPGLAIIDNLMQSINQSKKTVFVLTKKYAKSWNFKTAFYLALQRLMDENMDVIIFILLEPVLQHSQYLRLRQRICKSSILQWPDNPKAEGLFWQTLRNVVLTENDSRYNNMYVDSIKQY

[4] = Cytotoxicity against HEK293 cells transfected with the CMV-TLR7 construct assessed as reduction in cell viability after 6 hrs by ATPlite assay; conditions: human

Structure (SMILES) | MEC [1] [µM] | MEC [2] [µM] | MEC [3] [µM] | CC50 at 6 h [4] [µM]
CCCCNc1nc(N)nc2c1CN(Cc1ccccc1Cl)CC2 | 1.5 | 0.15 | 0.05 | > 24
CCCCNc1nc(N)nc2c1CN(C(=O)c1cocn1)CC2 | 0.7 | 0.17 | 0.2 | > 24
CCCCNc1nc(N)nc2c1CNCC2 | > 25 |  | 7.2 | > 24
CCCCNc1nc(N)nc2c1CN(C(=O)c1cc(C)on1)CC2 | 0.8 | 0.22 | 0.4 | > 24
CCCCNc1nc(N)nc2c1CN(Cc1c(Cl)cccc1Cl)CC2 | 2.4 | 0.19 | 0.14 | > 24
CCCCNc1nc(N)nc2c1CN(C(=O)c1scnc1C)CC2 | 13 | 2.23 | 5.6 | > 24
CCCCNc1nc(N)nc2c1CN(C(=O)C1CCC1)CC2 | 0.8 | 0.23 | 0.4 | > 24
CCCCNc1nc(N)nc2c1CN(C(=O)c1cnccn1)CC2 | 3.7 | 2.38 | 2.2 | > 24
CCCCNc1nc(N)nc2c1CCN(C)C2 | 10 |  | 0.2 | > 24
CCCCNc1nc(N)nc2c1CCNC2 | 8.9 |  | 0.6 | > 24
CCCCNc1nc(N)nc2c1CN(C(=O)C(C)C)CC2 | 8.1 | 1.8 | 1.6 | > 24
CCCCNc1nc(N)nc2c1CCN(S(C)(=O)=O)C2 | 20 |  | 0.8 | > 24
CCCCNc1nc(N)nc2c1CN(Cc1c[nH]c3ccccc13)CC2 | > 20 | 0.18 | 0.22 | > 24
CCCCNc1nc(N)nc2c1CN(Cc1ccccc1)CC2 | 1.6 |  | 0.06 | > 24
CCCCNc1nc(N)nc2c1CN(Cc1ccc(C(F)(F)F)cc1)CC2 | 2.8 | 0.54 | 0.23 | > 24
CCCCNc1nc(N)nc2c1CN(C(=O)CC)CC2 | 2.3 | 0.53 | 0.4 | > 24
CCCCNc1nc(N)nc2c1CN(C(=O)c1cscn1)CC2 | 1.2 | 0.17 | 0.5 | > 24
CCCCNc1nc(N)nc2c1CN(Cc1ccc(OC(F)(F)F)cc1)CC2 | 4.7 | 0.52 | 0.24 | > 24
CCCCNc1nc(N)nc2c1CN(Cc1ccco1)CC2 | 3.7 | 0.07 | 0.08 | > 24
CCCCNc1nc(N)nc2c1CN(Cc1cc(F)cc(F)c1)CC2 | 3.5 | 0.53 | 0.23 | > 24
CCCCNc1nc(N)nc2c1CN(Cc1ccc(C(C)(C)C)cc1)CC2 | 19 | 2.79 | 0.66 | > 24
CCCCNc1nc(N)nc2c1CN(Cc1ccc(OC)cc1)CC2 | 2.1 | 0.17 | 0.08 | > 24
CCCCNc1nc(N)nc2c1CN(Cc1cccc(Cl)c1Cl)CC2 | 1.5 | 0.25 | 0.18 | > 24
